According to patent publication US20160037780A1, “BORON CONTAINING COMPOUNDS AND USES THEREOF” (EMPIRE TECHNOLOGY DEVELOPMENT LLC, priority 2013, published 2016):

Tests used:
Gloeophyllum trabeum = test: Soil block test (AWPA E10-10), decay resistance of treated wood blocks; type: cell-based; details: 12 weeks at 28° C., mean of 6 blocks (SD)
Experimental: Soil Block Test. The soil block test (AWPA, 2010) is a relatively rapid laboratory method for assessing the decay resistance of wood-based materials under conditions that favor rapid fungal attack of wood. Soil block tests were conducted upon blocks treated with compounds and compositions described herein. Leachates from the blocks were collected prior to fungal exposure and analyzed.
Ponderosa pine (Pinus ponderosa L) sapwood blocks (19 mm cubes) were oven dried (60° C.) and weighed. The blocks were then randomly allocated, in groups of 12, to the various treatment groups. Treatment solutions containing actives (e.g., the compounds and compositions described herein) were supplied as 10% active ingredient concentrates. These solutions were then diluted with toluene to produce treatment solutions containing 0.1, 0.5, 1.0 and 3.0% active ingredient solutions. The blocks from a given group were placed in a container and covered with an excess of a given treatment solution. This container was placed in a desiccator. A vacuum was drawn over the vessel and then released. The blocks were removed from the treatment solution and blotted to remove excess solution before being weighed. The difference between the original dry weight and the wet weight was used to calculated net solution uptake. The blocks were stored wet for 3 days at 20-23° C. to allow any fixation reactions to proceed before being oven dried at 60° C. and weighed. The blocks were then conditioned to constant weight at 23° C. and 65% relative humidity prior to further testing.
(§1) Six blocks from each treatment group were subjected to a 14-day leaching procedure as described AWPA Standard E11-10 from the American Wood Preservers' Association's (AWPA) “Standard method of determining the leachability of wood preservatives” in the AWPA Book of Standards, Birmingham, Ala., 2010. The blocks were immersed in an excess of water, and subjected to a short vacuum. The water was then changed after 6, 24, and 48 hours of immersion and at 48 hour intervals over a total of 14 days. An aliquot of the leachate was retained at each time point for later analysis. The leached blocks were then reconditioned to constant weight at 23° C. and 65% relative humidity. Leachate collected at each time point was analyzed for boron using the azomethine H method as described in AWPA Standard A2-10 Method 16. All of the blocks were briefly soaked with water prior to being placed in plastic bags and sterilized by exposure to 2.5 mrad of ionizing radiation from a cobalt 60 source.
Decay chambers were prepared by half filling 454 ml French squares with moisture forest loam and placing a western hemlock feeder strip on the soil surface as described in AWPA Standard E10-10 “Standard method of testing wood preservatives by laboratory soil-block cultures.” The bottles were then loosely capped and autoclaved for 45 minutes at 121° C.
After cooling, the bottles were inoculated with 2 to 3 mm diameter malt agar disks cut from the actively growing edges of cultures of the test fungus, Gloeophyllum trabeum (Pers. ex Fr.) Murr. (Isolate: Madison 617). This fungus causes a brown rot of wood and tends to have some tolerance to boron compounds. The agar plugs were placed on the edges of the wood feeder strips, and the jars were loosely capped (to allow air exchange), and incubated until the feeder strip was thoroughly covered with fungal mycelium. The sterile test blocks were then placed on the surfaces of the feeder strips, the bottles were loosely capped and incubated at 28° C. for 12 weeks.
At the end of the incubation period, the blocks were removed, scraped clean of adhering mycelium and weighed to determine wet weight. The blocks were then oven dried (60° C.) and weighed. Differences between initial and final oven-dry weight were used as a measure of the decay resistance of each material.

[1] = 14-day leaching procedure (AWPA E11-10), boron in leachate by azomethine H method; type: physicochemical; details: 14-day water leaching of treated blocks
Experimental: as §1

## Borate
Gloeophyllum trabeum; 0.1% B, Leaching + (first line of treatment)
  Average Wood Weight Loss: 50.8 (4.2) %
Gloeophyllum trabeum; 0.1% B, second line of treatment, Leaching +
  Average Wood Weight Loss: 53.8 (11.5) %
Gloeophyllum trabeum; 0.5% B, Leaching + (first line of treatment)
  Average Wood Weight Loss: 46.5 (3.3) %
Gloeophyllum trabeum; 0.5% B, second line of treatment, Leaching +
  Average Wood Weight Loss: 46.3 (2.4) %
Gloeophyllum trabeum; 1.0% B, Leaching + (first line of treatment)
  Average Wood Weight Loss: 53.6 (4.3) %
Gloeophyllum trabeum; 1.0% B, second line of treatment, Leaching +
  Average Wood Weight Loss: 48.3 (8.7) %
Gloeophyllum trabeum; 3.0% B, Leaching + (first line of treatment)
  Average Wood Weight Loss: 51.8 (8.3) %
Gloeophyllum trabeum; 3.0% B, second line of treatment, Leaching printed + (probably non-leached)
  Average Wood Weight Loss: 27.3 (6.9) %
[1]
  Boron concentrations in leachates (rank among formulations): highest
